Measurements as given in patent US12568960B2, “Adjuvant combinations as foliar uptake accelerator for herbicidal compositions” (Bayer Aktiengesellschaft, priority 2019, dated 2026).
Blank lines part the entries; values can stand above or below the molecule they belong to.

Legend:
cuticula of apple leaves = assay: Membrane (cuticle) penetration test
Method: The properties of the adjuvant combinations according to the invention as penetration enhancers were measured in a membrane penetration test on the cuticula of apple leaves.
Determination of bioavailability of various herbicides, plant growth regulators (PGRs) and safeners by cuticle penetration test.
The leaf cuticles were isolated enzymatically as described in the literature. The stomata-free cuticles were first dried under air and introduced into stainless steel diffusion cells. After the application of the test liquids to the original top side of the leaf and evaporation of liquid, the diffusion cells were transferred into thermostat blocks and loaded with water. At regular intervals, aliquot samples were taken, and the amount of active ingredient diffused was determined by means of HPLC. […] Detection was effected with a DAD detector. The results given in each case are the geometric penetration averages at the average measurement times. According to the variance, 10 repeat measurements were conducted.
Typically, a spray solution of the active ingredient (0.5 g of active ingredient/l) was produced. An aliquot was applied to an apple cuticle and left to dry. The operation was repeated 10 times. The amount absorbed through the cuticles in the uptake solution is determined by HPLC as described above. The measurements were made after 0, 6, 12, 24, 36 or 48 h.

[1] = Dynamic surface tension, bubble pressure method; assay type: physicochemical; details: 6 g/l
Method: Dynamic surface tension was determined via the bubble pressure method (BP2100 tensiometer, Krüss).

[2] = Table 8, mefenpyr-diethyl SC formulation, no adjuvant
[3] = Table 9, mefenpyr-diethyl SC formulation, no adjuvant
[4] = Table 7, bixlozone standard SC formulation, no adjuvant
[5] = Table 19, bixlozone SC formulation, no adjuvant
[6] = Table 26, bixlozone EC formulation, no adjuvant
[7] = Table 24, Compound 3 WP20 formulation, cuticle from 2016, no adjuvant
[8] = Table 30, Compound 5 WP20 formulation, no adjuvant
[9] = Table 31, Compound 6 WP20 formulation, no adjuvant
[10] = Table 20, prohexadione-Ca EC formulation, no adjuvant
[11] = Table 12, Rinskor EC formulation, adjuvant 2 g/l

Molecule: CCOC(=O)C1=NN(c2ccc(Cl)cc2Cl)C(C)(C(=O)OCC)C1 (racemic) [Mefenpyr-diethyl, Diethyl (RS)-1-(2,4-dichlorophenyl)-4,5-dihydro-5-methyl-1H-pyrazole-3,5-dicarboxylate]
Cuticle penetration 12 h in % (cuticula of apple leaves; [2]): 4%
Cuticle penetration 24 h in % (cuticula of apple leaves; [2]): 9%
Cuticle penetration 48 h in % (cuticula of apple leaves; [2]): 16%
Cuticle penetration 24 h in % (cuticula of apple leaves; [3]): 17%
Cuticle penetration 48 h in % (cuticula of apple leaves; [3]): 59%

Cuticle penetration 6 h in % (cuticula of apple leaves; [4]): 21%
Cuticle penetration 12 h in % (cuticula of apple leaves; [4]): 42%
Cuticle penetration 24 h in % (cuticula of apple leaves; [4]): 62%
Cuticle penetration 24 h in % (cuticula of apple leaves; [5]): 24%
Cuticle penetration 48 h in % (cuticula of apple leaves; [5]): 73%
Cuticle penetration 6 h in % (cuticula of apple leaves; [6]): 27%
Cuticle penetration 12 h in % (cuticula of apple leaves; [6]): 29%
Cuticle penetration 24 h in % (cuticula of apple leaves; [6]): 31%
Molecule: CC1(C)CON(Cc2ccc(Cl)cc2Cl)C1=O [Bixlozone, 2-(2,4-Dichlorobenzyl)-4,4-dimethylisoxazolidin-3-one]

Cuticle penetration 12 h in % (cuticula of apple leaves; [7]): 0%
Cuticle penetration 24 h in % (cuticula of apple leaves; [7]): 0%
Cuticle penetration 48 h in % (cuticula of apple leaves; [7]): 0%
Molecule: NC(=O)c1ccc(C(F)(F)F)nc1O [Compound 3]

Cuticle penetration 12 h in % (cuticula of apple leaves; [8]): 6%
Cuticle penetration 24 h in % (cuticula of apple leaves; [8]): 14%
Cuticle penetration 48 h in % (cuticula of apple leaves; [8]): 52%
Molecule: Cc1ccc2c(c1)C(Nc1ncc(C(C)(C)O)cn1)[C@@H](C)C2 (stereo partly drawn) [Compound 5]

Cuticle penetration 12 h in % (cuticula of apple leaves; [9]): 0%
Cuticle penetration 24 h in % (cuticula of apple leaves; [9]): 0%
Cuticle penetration 48 h in % (cuticula of apple leaves; [9]): 2%
Molecule: Cc1ccc2c(c1)C(Nc1nc3n(n1)CCCCS3)CCC2 (stereo not drawn) [Compound 6]

Molecule: CCC(=O)C1=C([O-])CC(C(=O)[O-])CC1=O.[Ca+2] (stereo not drawn) [Prohexadione-Ca, Calcium 3-oxido-5-oxo-4-propionyl-cyclohex-3-enecarboxylate]
Cuticle penetration 24 h in % (cuticula of apple leaves; [10]): 18%
Cuticle penetration 48 h in % (cuticula of apple leaves; [10]): 44%

Molecule: Cn1nc(C(F)(F)F)c(CS(=O)(=O)C2=NOC(C)(C)C2)c1OC(F)F [Pyroxasulfone, 3-[5-(Difluoromethoxy)-1-methyl-3-(trifluoromethyl)pyrazol-4-ylmethylsulfonyl]-4,5-dihydro-5,5-dimethyl-1,2-oxazole]
Cuticle penetration 24 h in % (cuticula of apple leaves; apple, 24 h, 0.5 g/l): 2%

Molecule: CCCCOCCOP(=O)(OCCOCCCC)OCCOCCCC [TBEP, Tributoxyethyl phosphate]
Penetration enhancement (in words) (cuticula of apple leaves; bixlozone, summary of Table 7): shows distinctly lower uptake of bixlozone than TEHP
Penetration enhancement (in words) (cuticula of apple leaves; tembotrione (Laudis SC), summary of Tables 5 and 6): does not enhance the uptake of tembotrione

Molecule: CCCCC(CC)COP(=O)(OCC(CC)CCCC)OCC(CC)CCCC (stereo not drawn) [TEHP, Tris(2-ethylhexyl) phosphate]
Dynamic surface tension 20 ms [1]: 71.7 mN/m
Dynamic surface tension 50 ms [1]: 71.7 mN/m
Dynamic surface tension 200 ms [1]: 71.6 mN/m
Dynamic surface tension 500 ms [1]: 71.5 mN/m
Penetration enhancement (in words) (cuticula of apple leaves; mefenpyr-diethyl, summary of Tables 8 and 9): has better penetration-enhancing properties compared to TBEP in the combination

Molecule: CS(=O)(=O)c1ccc(C(=O)C2C(=O)CCCC2=O)c(Cl)c1COCC(F)(F)F [Tembotrione]
Cuticle penetration 6 h in % (cuticula of apple leaves; apple, 6 h, 0.5 g/l): 0%
Cuticle penetration 12 h in % (cuticula of apple leaves; apple, 12 h, 0.5 g/l): 0%

Cuticle penetration 24 h in % (cuticula of apple leaves; [11]): 5%
Cuticle penetration 48 h in % (cuticula of apple leaves; [11]): 15%
Molecule: Ammonium sulfate [AMS]
